Usually IC50 stands for the concentration that gives 50% inhibition.

Read-outs that look alike come from different tables or passages of the source.

The test system of series [1] is Ovcar3-GTL catenae. Kind of series: Catena morphology on basement membrane matrix (Matrigel) coated plates. Format: cell-based, human. The note with it: for morphology on Matrigel, hyaluronidase-pretreated cells grown with 4-MU and Y27632 / morphology on Matrigel, mechanically-dissociated cells grown with 4-MU and Y27632: 1 mM 4-MU together with 50 μM Y27632, imaged after 4 days. On the procedure:
Ovcar3-GTL catenae were dissociated to single cells by mechanical dissociation or by hyaluronidase treatment and cultured on basement membrane matrix (Matrigel) coated plates. A similar set of cultures were grown in the presence of 1 mM 4-methylumbelliferone (4-MU) and 50 μM Y27632, the former being an hyaluronan synthase 2 (HAS2) inhibitor and the latter being a Rho-ROCK inhibitor. The cultures were imaged after 4 days.

Series [2] deals with Ovcar3-GTL catenae. Kind of series: Ovcar3-GTL catena drug sensitivity (proliferation, alamarBlue, 384-well). For orientation: Resazurin is reduced to fluorescent resorufin, in cell work by metabolically active cells.
Protocol: Cultures of Ovcar3-GTL catenae were mechanically or enzymatically dissociated to single cells. For mechanical dissociation, catena cultures were pipetted vigorously, an equal volume of M5-FCS media was added to decrease the viscosity, and the cells were pelleted. For enzymatic dissociation, catena cultures were incubated at 5 mg/ml collagenase IV (Invitrogen) for 10 min at 37° C. followed by centrifugation to pellet the cells. Cells were resuspended in M5-FCS to produce homogenous cultures of single cells which were seeded in 50 μL aliquots per well at the indicated cell densities and grown for the indicated times before addition of test compounds or other reagents.
The amount of fluorescence or absorbance is proportional to the number of living cells and corresponds to the cells metabolic activity. […] Absorbance of alamarBlue® is monitored at 570 nm, using 600 nm as a reference wavelength. Larger fluorescence emission intensity (or absorbance) values correlate to an increase in total metabolic activity from cells.
For these experiments, 25 Ovcar3-GTL catena or 250 Ovcar3-GTL catena cells were seeded per well as described above. […] Five days after adding the test compound, alamarBlue® was added to the cultures and culture absorbance was measured 48 hours later.
The subject of series [3] is catena cells. In words: Morphological effects on catena cells observed under the microscope. The series is classed as cell-based, human. The note with it: for catena cells observed under the microscope in cultures treated with high concentrations: 100 μM (rapamycin 25 μM, lovastatin acid 50 μM), cells arrested at mitosis, re-entered cell cycle without drug. On the procedure:
When these cells were harvested and cultured in the absence of drugs, they re-entered the cell cycle.
These spheroids continued to grow in the presence of high concentrations of rapamycin (>50 uM) and retained their spheroid morphology.
The change in the cell-to-cell junctions might also be a resistance mechanism where cells activate signaling pathways by increasing cell-to-cell attachment or more tightly control transport of molecules between cells. […]

In series [4] the test system is catena cells. In words: Exosome release from catena cells (exosome isolation and FACS). Conditions: PMA 10 uM. The series is classed as cell-based, human. On the procedure:
To prepare secreted and exosomal fractions from catenae, the catenae were grown in serum-free media with insulin as described in Example 28 for 5 days, until the culture was near confluent. All centrifugations were done at 4° C. to preserve protein integrity. The cells were removed by centrifugation at 300×g for 10 min. The supernatant fraction was further spun down at 2,000×g for 20 minutes and at 10,000×g for 30 min to remove cellular debris. This supernatant was subjected to ultracentrifugation at100,000×g for 2.5 h. The new supernatant fraction, containing the soluble proteins secreted by catenae (i.e., the catena secretome) was concentrated 200-fold by through a 10 kDa molecular weight cutoff filter. The resulting pellet from the ultracentrifugation was washed twice with PBS, with each wash followed by another round of ultracentrifugation under the same conditions, and kept at 4° C. for further analysis. Exosomes were isolated from Ovcar5 and A2780 human ovarian cancer cell lines that were grown as attached mesenchymal monolayers and from two ovarian cancer patient ascites samples using the same methodology. […]
The exosome isolation followed by FACS analysis allows rapid analysis of ovarian cancer stem cell exosomes both quantitatively and qualitatively. […]

The subject of series [5] is catena cells. Kind of series: Growth of catena cells upon disruption of the glycocalyx. The series is classed as cell-based, human. On the procedure:
To investigate the how catena cells grow upon disruption of the glycocalyx, catenae were dissociated to single cells with hyaluronidase treatment and plated in tissue culture treated flasks with or without 10% hyaluronidase enzyme solution (10 mg/ml) to prevent the formation of glycocalyx. In parallel, catenae were dissociated mechanically and plated in the absence of hyaluronidase.

Series [6] has as its system Ovcar3-GTL catenae. Kind of series: Particle exclusion experiment with red blood cells (glycocalyx visualisation). The note with it: brief incubation with hyaluronidase, RBCs overnight. The series is classed as cell-based, human. The method, then:
To visualize the glycocalyx surrounding a catena, a particle exclusion experiment was conducted using red blood cells (RBCs). Catenae were mechanically dissociated by pipetting or by brief incubation with hyaluronidase as before. RBCs from human peripheral blood were added and the mixture was incubated overnight in culture media. The cells were observed under the light microscope for the presence of a glycocalyx separating catena cells from the RBCs.

Series [7] in a line: Viscosity of catena culture supernatant after hyaluronidase. Conditions: a few drops 10 mg/mL hyaluronidase. On the procedure:
In contrast, Ovcar3-GTL epithelial cells were 98% positive for CA125 by FACS and secreted 800 units/ml of CA125 into culture media. For the ELISA, cell supernatants were collected by spinning the cultures at 300×g for 5 min to remove cells and assayed by CA125 ELISA using an automated instrument, ADVIA Centaur XP Immunoassay System (Siemens Healthcare Diagnostics Inc.).
Hyaluronan is a glycosaminoglycan found in extracellular matrix and functions to provide microenvironmental cues in a number of biological processes, including tumor development [Toole, 2004]. Supernatants prepared as above were treated with a few drops 10 mg/mL hyaluronidase (Sigma) in deionized water.

As for `Cc1cc(=O)oc2cc(O)ccc12` [4-methylumbelliferone], in series [1], the “morphology on Matrigel, hyaluronidase-pretreated cells grown with 4-MU and Y27632” value is “the cultures did not become viscous and the attached cells formed filopodial extensions”; the “morphology on Matrigel, mechanically-dissociated cells grown with 4-MU and Y27632” value was “did not become viscous; rather, the cells attached to the plates and formed filopodial extensions”.

In the case of `O=c1[nH]cc(F)c(=O)[nH]1` [5-FU, 5-fluorouracil], in series [2] (IC50 day 6 / IC50 day 1), the “Increase in Resistance Day 6/Day 1” value amounted to 33 fold. Also, in series [3], the “morphological change of catenae on treatment” value (“morphological change” for short) is “formation of fused chains”.

Take `C=CCNC1=C2C[C@@H](C)C[C@H](OC)[C@H](O)[C@@H](C)/C=C(\C)[C@H](OC(N)=O)[C@@H](OC)/C=C\C=C(/C)C(=O)NC(=CC1=O)C2=O` [17AAG, 17-AAG/Tanespimycin]: in series [2] (IC50 day 6 / IC50 day 1), the “Increase in Resistance Day 6/Day 1” value turned out to be 33 fold.

Take `Nc1ccn([C@@H]2O[C@H](CO)[C@@H](O)[C@@H]2O)c(=O)n1` [Ara-C]: in series [2] (IC50 day 6 / IC50 day 1), the “Increase in Resistance Day 6/Day 1” value was 2,000 fold. In addition, the “catena cells observed under the microscope in cultures treated with high concentrations” value (“catena cells observed” for short) in series [3] was “live, large single cells”.

As to `C/C(=C\c1csc(C)n1)[C@@H]1C[C@@H]2O[C@]2(C)CCC[C@H](C)[C@H](O)[C@@H](C)C(=O)C(C)(C)[C@@H](O)CC(=O)O1` [Epo-B, Epothilone B], the “Increase in Resistance Day 6/Day 1” value in series [2] (IC50 day 6 / IC50 day 1) is given as 4,000 fold.

On to `O=c1cc(N2CCOCC2)oc2c(-c3ccccc3)cccc12` [LY294002], for which the “Increase in Resistance Day 6/Day 1” value in series [2] (IC50 day 6 / IC50 day 1) turned out to be 4 fold.

On to `CC(=O)c1c(C)c2cnc(Nc3ccc(N4CCNCC4)cn3)nc2n(C2CCCC2)c1=O` [PD-0332991], for which the “Increase in Resistance Day 6/Day 1” value in series [2] (IC50 day 6 / IC50 day 1) is recorded as 83 fold.

For the molecule `C[C@@H](Oc1cc(-c2cnn(C3CCNCC3)c2)cnc1N)c1c(Cl)ccc(F)c1Cl` [PF-02341066], the “Increase in Resistance Day 6/Day 1” value in series [2] (IC50 day 6 / IC50 day 1) was found to be 31 fold.

Turning to `O=C(CCCCCCC(=O)Nc1ccccc1)NO` [SAHA], in series [3], the “morphological change” value is “formation of tight spheroids”.

Take `C[C@@H](N)[C@H]1CC[C@H](C(=O)Nc2ccncc2)CC1` [Y27632]: in series [1], the “morphology on Matrigel, hyaluronidase-pretreated cells grown with 4-MU and Y27632” value is “the cultures did not become viscous and the attached cells formed filopodial extensions”; the “morphology on Matrigel, mechanically-dissociated cells grown with 4-MU and Y27632” value is “did not become viscous; rather, the cells attached to the plates and formed filopodial extensions”.

In the case of `Cc1ccc2c(c1)C(=O)C1(O)CCN(c3ccccc3)C1=N2` (stereo not shown) [blebbistatin], in series [4], the exosome release entry was “inhibited exosome release”.

For `C/C1=C/C[C@@H](/C(C)=C/c2csc(C)n2)OC(=O)C[C@H](O)C(C)(C)C(=O)[C@H](C)[C@@H](O)[C@@H](C)CCC1` [dEpoB], the “Increase in Resistance Day 6/Day 1” value in series [2] (IC50 day 6 / IC50 day 1) is 250,000 fold.

In the case of `COc1cccc2c1C(=O)c1c(O)c3c(c(O)c1C2=O)C[C@@](O)(C(C)=O)C[C@@H]3O[C@H]1C[C@H](N)[C@H](O)[C@H](C)O1` [daunarubacin], the “Increase in Resistance Day 6/Day 1” value in series [2] (IC50 day 6 / IC50 day 1) stood at 133 fold.

Consider `COc1cccc2c1C(=O)c1c(O)c3c(c(O)c1C2=O)C[C@@](O)(C(=O)CO)C[C@@H]3O[C@H]1C[C@H](N)[C@H](O)[C@H](C)O1` [doxorubicin], for which the “Increase in Resistance Day 6/Day 1” value in series [2] (IC50 day 6 / IC50 day 1) came out at 32 fold.

On to `COc1cc([C@@H]2c3cc4c(cc3[C@@H](O[C@@H]3O[C@@H]5CO[C@@H](C)O[C@H]5[C@H](O)[C@H]3O)[C@H]3COC(=O)[C@H]23)OCO4)cc(OC)c1O` [etoposide], for which the “Increase in Resistance Day 6/Day 1” value in series [2] (IC50 day 6 / IC50 day 1) stood at 125 fold.

For the molecule `C/C(=C\c1csc(C)n1)[C@@H]1C/C=C(/C(F)(F)F)C/C=C/[C@H](C)[C@H](O)[C@@H](C)C(=O)C(C)(C)[C@@H](O)CC(=O)O1` [fludelone], the “catena cells observed” value in series [3] is recorded as “live, large single cells”.

As to `CC[C@H](C)C(=O)O[C@H]1C[C@@H](C)C=C2C=C[C@H](C)[C@H](CC[C@@H](O)C[C@@H](O)CC(=O)O)[C@H]21` [lovastatin acid], the “Increase in Resistance Day 6/Day 1” value in series [2] (IC50 day 6 / IC50 day 1) worked out at 2 fold. Further, the “catena cells observed” value in series [3] was “live, large single cells”.

Consider `CO[C@@]12[C@H](COC(N)=O)C3=C(C(=O)C(C)=C(N)C3=O)N1C[C@@H]1N[C@@H]12` [mitomycin-C], for which, in series [2], the “Increase in Resistance Day 6/Day 1” value was 60 fold.

Take `CC(=O)O[C@H]1C(=O)[C@@]2(C)[C@H]([C@H](OC(=O)c3ccccc3)[C@]3(O)C[C@H](OC(=O)[C@H](O)[C@@H](NC(=O)c4ccccc4)c4ccccc4)C(C)=C1C3(C)C)[C@]1(OC(C)=O)CO[C@@H]1C[C@@H]2O` [paclitaxel]: the IC50 in series [2] (Homo sapiens, read-out: IC50 Addition on Day 1) is 0.012 nM. In addition, the “catena cells observed” value in series [3] was “live, large single cells”.

In the case of `CCCCCCCCCCCCCC(=O)O[C@@H]1[C@@H](C)[C@@]2(O)[C@@H](C=C(CO)C[C@]3(O)C(=O)C(C)=C[C@@H]23)[C@@H]2C(C)(C)[C@]12OC(C)=O` [phorbol 12-myristate 13-acetate], the exosome release result in series [4] is on record as “induced exosomes release”.

Regarding `CO[C@H]1C[C@@H]2CC[C@@H](C)[C@@](O)(O2)C(=O)C(=O)N2CCCC[C@H]2C(=O)O[C@H]([C@H](C)C[C@@H]2CC[C@@H](O)[C@H](OC)C2)CC(=O)[C@H](C)/C=C(\C)[C@@H](O)[C@@H](OC)C(=O)[C@H](C)C[C@H](C)/C=C/C=C/C=C/1C` [rapamycin], in series [2] (IC50 day 6 / IC50 day 1), the “Increase in Resistance Day 6/Day 1” value is listed as 2 fold.

Take `CC[C@@]1(O)C(=O)OCc2c1cc1n(c2=O)Cc2cc3c(CN(C)C)c(O)ccc3nc2-1` [topotecan]: in series [2] (IC50 day 6 / IC50 day 1), the “Increase in Resistance Day 6/Day 1” value is given as 5,000 fold. In addition, the “catena cells observed” value in series [3] was “live, large single cells”.

In the case of hyaluronidase, in series [1] (imaged after 4 days), the “morphology on Matrigel, cells treated with only hyaluronidase” value is “attached to extracellular matrix and grew as attached irregular aggregates”. For the same molecule, the “morphological change” value in series [3] was “lose their polarity and form irregular aggregates”. In addition, the “growth of catena cells after brief hyaluronidase treatment, plated without enzyme” value in series [5] was “no longer formed free floating chains but rather proliferated as irregular aggregates in suspension”. For the same molecule, the “growth of catena cells continuously treated with hyaluronidase” value in series [5] (10% hyaluronidase enzyme solution (10 mg/ml)) was “attached to tissue culture plates and formed epithelial and mesenchymal monolayers”. In addition, in series [6], the “glycocalyx in particle exclusion experiment” value is recorded as “completely lacked a glycocalyx”. For the same molecule, in series [7], the “viscosity of the culture supernatant” value is given as “rapidly reduced the viscosity of the supernatant”.

For iso-oxazole-fludelone, in series [2] (IC50 day 6 / IC50 day 1), the “Increase in Resistance Day 6/Day 1” value is reported as 33,333 fold. Besides, the “catena cells observed” value in series [3] was “live, large single cells”.

The values are drawn from patent publication US20120219506A1, “Catenae: Serosal Cancer Stem Cells” (SLOAN KETTERING INSTITUTE FOR CANCER RESEARCH, priority 2009, published 2012).
